Test results reported in patent publication US9682060B2, “Small molecules that induce intrinsic pathway apoptosis” (The Board of Trustees of the University of Illinois, priority 2015, dated 2017).
Entries after “also recorded” stand apart in the source; their conditions may differ.

What was measured:
[1] = tested on: caspase-3/-7 activity in MIA PaCa-2 cells; assay: Whole cell caspase activity assay (Ac-DEVD-AFC); type: cell-based, Human; conditions: transfected MIA PaCa-2 cells; 10 μM for 1 hour
Protocol: Whole Cell Caspase Activity Assay.
The caspase activity assay was conducted in 96-well plates using transfected cells (see Example 3 for transfection protocol). Transfected cells were treated with 10 μM Raptinal for 1 hour, which corresponded to 40% of maximal caspase-3/-7 activity achievable by Raptinal. After treatment, the media was replaced with PBS (150 μL) and 50 μL of freshly made 4× caspase assay buffer (containing 20 μM Ac-DEVD-AFC) (Stennicke and Salvesen, 1997). After one hour incubation at room temperature (^˜22° C.) in the dark, the fluorescence of cleaved AFC was read on a spectrofluorometer (Ex: 380 nm, Em: 500 nm). The results were expressed as the relative caspase-3/-7 activity and normalized by designating the vehicle (0.5% DMSO) as 0% activity and Raptinal treatment as 100% activity.

[2] = tested on: cancer cell lines (HL-60, SK-MEL-5, U-937); assay: Initial screens against cancer cell lines; type: cell-based, Human
4T1 breast cancer = assay: Syngeneic subcutaneous tumor model; type: in vivo, BALB/c mice; conditions: 4T1 model; 20 mg/kg IP once daily for 4 days
Protocol: All animal studies were performed with prior approval by the University of Illinois at Urbana-Champaign IACUC committee. […]. Seven days (for B16-F10) and six days (for 4T1) after inoculation, the mice were randomized based upon tumor size with 7 mice per group. Vehicle or compound was administered intraperitoneally as a corn oil DMSO suspension (300 μL of 10% DMSO in trans fat-free corn oil, 20 mg/kg) once daily for 3 consecutive days for B16-F10 and 4 consecutive days for 4T1 models. Tumor measurements were performed every other day using a caliper and tumor volume was calculated using the equation (0.5×l×w^2).

MCF-7 = assay: Raptinal toxicity, 24 hour IC50 (sulforhodamine B assay for adherent cells); type: cell-based; conditions: MCF7; MCF-7 (Human Breast Cancer); 24 hour incubation; mean ± SD
Protocol: (§1) Sulforhodamine B Assay for Adherent Cells.
(§2) Serial dilutions of compound in 100% DMSO were added in triplicate (2 μL to each well) to empty wells of a 96-well plate. Adherent cells (3T3, Hs888Lu, MCF-7, HeLa, WT-MEF, 4T1, B16-F10, SK-MEL-5, MIA PaCa2, BT-549, MDA-MB-436, 143B, HOS, H460, H1993) cells were added to each well (5×10^3 cells in 198 μL of RPMI 1640, DMEM or EMEM media). The plates were incubated for 24 hours. The media was removed from the plate and ice-cold trichloroacetic acid (100 μL of 10% w/v trichloroacetic acid) was added to the plates which were then incubated at 4° C. overnight to fix the cells. The trichloroacetic acid was removed and the wells washed with 200 μL of de-ionized water 5 times. Sulforhodamine B (200 μL of 0.04% sodium salt dissolved in 1% acetic acid) was added to each well and the plates incubated at room temperature for 30 min. Excess sulforhodamine B was removed by washing the plates 5 times with 1% acetic acid. The bound dye was released by the addition of unbuffered Tris-base (200 μL of 10 mM solution) and after a 30 min incubation at room temperature the absorbance at 510 nm was measured (Molecular Devices SpectraMax Plus 384 plate reader). The mean IC50 values and standard deviations were determined from three independent experiments.

WT-MEF = assay: as above; type: cell-based; conditions: Fibroblast; WT-MEF (Mouse Embryonic Fibroblasts); 24 hour incubation; mean ± SD
Protocol: as §1, §2

B16-F10 = assay: as above; type: cell-based; conditions: B16-F10 (Mouse Melanoma); 24 hour incubation; mean ± SD
Protocol: as §1, §2

BT-549 = assay: as above; type: cell-based; conditions: BT-549 (Human Breast Cancer); 24 hour incubation; mean ± SD
Protocol: as §1, §2

SK-MEL-5 = assay: as above; type: cell-based; conditions: SK-MEL-5 (Human Melanoma); 24 hour incubation; mean ± SD
Protocol: as §1, §2

HeLa = assay: as above; type: cell-based; conditions: HeLa (Human Cervical Cancer); 24 hour incubation; mean ± SD
Protocol: as §1, §2

HOS = assay: as above; type: cell-based; conditions: HOS (Human Osteosarcoma); 24 hour incubation; mean ± SD
Protocol: as §1, §2

H460 = assay: as above; type: cell-based; conditions: NCI-H460; H460 (Human Lung Cancer); 24 hour incubation; mean ± SD
Protocol: as §1, §2

4T1 = assay: as above; type: cell-based; conditions: 4T1 (Mouse Breast Cancer); 24 hour incubation; mean ± SD
Protocol: as §1, §2

Jurkat cells = assay: AV/PI assay in Jurkat cell lines (WT, caspase-8 deletion, FADD deletion, Bcl-2 upregulation); type: cell-based, Human; conditions: 10 μM, 2 hours
U-937 cells = assay: Immunoblotting of caspase activation and PARP-1 cleavage; type: cell-based, Human; conditions: 10 μM
Protocol: U-937 cells (3×10^6 cells in 2 mL RPMI) or SKW 6.4 cells (5×10^6 cells in 2 mL RPMI) were treated with compound (1% final DMSO v/v) for the appropriate period of time. After centrifugation and washing with PBS, cells were lysed with RIPA lysis buffer containing protease cocktail inhibitor III (Calbiochem) and cell debris removed by centrifugation (16000×g 5 min). The lysate concentrations were normalized after determination of protein concentration by the Bradford assay and whole cell lysate (40-60 μg) was resolved by 4-20% gradient SDS-PAGE gel electrophoresis at 120 V for 70 min after which proteins were transferred onto PVDF membranes (60 V for 2 hours) and blocked in 5% BSA or fat-free milk in TBST (as per primary antibody manufacturer's instructions) overnight at 4° C. The membranes were blotted for molecules of interest with primary antibody (1:1000 in 5% BSA or milk in TBST) overnight at 4° C. The bound primary antibodies were detected using appropriate secondary HRP conjugated antibodies (1:5000 in TBST) for 1 hour at room temperature and visualized by ECL autoradiography or with an Image Quant LAS 4010. The membranes were stripped in acidic methanol, blocked and re-probed as necessary.
Induction of Necroptosis and Observation of Phospho-MLKL by Immunoblot.
[…]. Cells were then treated with TNFα (10 ng/ml) in the presence of cycloheximide (20 μg/ml) for (1% final DMSO v/v) for the appropriate period of time. After centrifugation and washing with PBS, cells were lysed with RIPA lysis buffer containing protease cocktail inhibitor III (Calbiochem) and Phosphatase Inhibitor IV (BioVision). Samples were further processed for immunblot analysis as described above.

## O=CC1(C2(C=O)c3ccccc3-c3ccccc32)c2ccccc2-c2ccccc21 [Raptinal, [9,9′]bifluorenyl-9,9′-dicarbaldehyde]
[1]
  caspase-3/-7 activity as share of maximal activity achievable by Raptinal: 40%
[2]; Homo sapiens, HL-60, SK-MEL-5, U-937, 24 hour assays
  IC50: 150 to 700 nM
[2]; cancer cells treated 1 hour, extensive washing to remove compound, read at 24-hour mark
  cell death after short treatment and washout: significant cell death
4T1 breast cancer
  growth inhibition: 50%
MCF-7
  IC50: 3400 ± 100 nM
WT-MEF
  IC50: 2400 ± 700 nM
B16-F10
  IC50: 1600 ± 200 nM
BT-549
  IC50: 1300 ± 400 nM
SK-MEL-5
  IC50: 700 ± 100 nM
HeLa
  IC50: 600 ± 400 nM
HOS
  IC50: 1000 ± 100 nM
H460
  IC50: 1100 ± 100 nM
4T1
  IC50: 1000 ± 200 nM
Jurkat cells
  sensitivity of Jurkat Bcl-2 overexpressing versus wild type cells: less susceptible; also recorded: partial resistance
  sensitivity of Jurkat caspase-8−/− versus wild type cells: equally susceptible; also recorded: equally as sensitive
U-937 cells
  time of activation of initiator caspase-9: 20 min
  time to complete cleavage of procaspase-9, procaspase-8 and procaspase-3: ≤ 45 min
U-937 cells; Western blot
  cleavage of procaspase-1 (pyroptosis/pyronecrosis): neither
U-937 cells; one hour treatment
  activation of procaspase-3 to caspase-3 (immunoblot): complete activation
U-937 cells; one hour, versus the other toxins
  cleavage of PARP-1 (116 to 89 kDa form): Significantly more abundant cleavage
